Some test systems named below: M19-MEL melanoma; RXF-631 renal; HS 578T breast; NCI/ADR-RES ovarian; MDA-N; MDA-MB-435; DU-145 prostate; XF 498 CNS.
What all share (assay): inhibition of tumour cell growth, NCI panel, 48 h

The structures appear in SMILES notation. Where “and” joins values, the source holds several entries; their conditions need not be identical. Equal entries are not always repeated.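 Protocol summary: plate cells (96-well), add compound at 5 concentrations, incubate 48 h, interpolate endpoints linearly. GI50: concentration for 50% inhibition of growth. TGI: total growth inhibition.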

The record followed here is PubChem BioAssay (NCI).

On to `COS(=O)c1cc(Cl)cc(Cl)c1OC(=O)CSSCC(=O)Oc1c(Cl)cc(Cl)cc1S(=O)OC` (stereo not drawn), for which the TGI in the assay on M19-MEL melanoma was determined as 57.7 µM; with RXF-631 renal, 63.7 µM.
For the compound `CCN(CC)CCNc1n[n+]([O-])c2cc([N+](=O)[O-])ccc2[n+]1[O-]`, the TGI was 54.2 µM with HS 578T breast; 4.74 µM and 5.68 µM and 5.6 µM with NCI/ADR-RES ovarian; 2.48 µM and 1.65 µM and 1.2 µM with MDA-N; 2710 nM and 2370 nM and 2290 nM with MDA-MB-435; 6.15 µM and 3.57 µM and 3.16 µM in the assay on DU-145 prostate. Moreover, in the assay with DU-145 prostate, the GI50 is 1200 nM and 630 nM and 578 nM.
As for `CNC(=O)OCc1nc(SSc2nc(COC(=O)NC)c(COC(=O)NC)n2C)n(C)c1COC(=O)NC`, the TGI with M19-MEL melanoma, with XF 498 CNS and with RXF-631 renal was above 100 µM each time.
For the compound `CC[n+]1c(-c2ccccc2)c2cc(N)ccc2c2ccc(N)cc21`, the TGI was 5.86 µM with HS 578T breast; 10.5 µM with M19-MEL melanoma; above 100 µM in the assay with NCI/ADR-RES ovarian; 19 µM in the assay with MDA-N; 2560 nM and 12500 nM with MDA-MB-435; 13.3 µM and 42 µM with DU-145 prostate. Moreover, the GI50 was 1110 nM with MDA-MB-435 and 2000 nM in the assay with DU-145 prostate.
With `CCOC1c2nc3ccccc3nc2-c2ccccc2N1C(C)=O` (stereo not drawn), the TGI in the assay with M19-MEL melanoma, in the assay on XF 498 CNS and in the assay with RXF-631 renal was above 100 µM each time.
`O=C(O)c1ccccc1C(=O)c1ccco1`: the TGI with M19-MEL melanoma and with XF 498 CNS was above 100 µM in each case.
For the compound `CC(C)(C)O/N=C/c1cc(NC(=S)c2ccccc2)ccc1Cl`, the TGI in the assay with HS 578T breast worked out at 63 µM; in the assay with NCI/ADR-RES ovarian, 33.5 µM; with MDA-N, 29.9 µM; in the assay with MDA-MB-435, 88700 nM; in the assay on DU-145 prostate it was 42.1 µM.
On to `COC(=O)C1CCC(C)CC1=O` (stereo not drawn), for which the TGI in the assay on M19-MEL melanoma, in the assay on XF 498 CNS and in the assay with RXF-631 renal was above 100 µM throughout.
With `Cc1ccc(-n2nc(C(OC3OC(CO)C(O)C(O)C3O)C(O)CO)c3nc4cc(C)c(C)cc4nc32)cc1` (stereo not drawn), the TGI with M19-MEL melanoma, with XF 498 CNS and with RXF-631 renal was above 100 µM throughout.
For the compound `C[n+]1cn(CC(=O)c2ccccc2)c(C(N)=O)c1N`, the TGI was 63.2 µM in the assay with M19-MEL melanoma and above 100 µM in the assay on RXF-631 renal.
On to `CS(=O)(=O)OCCN1CCN(C(=O)c2ccc(Cl)c3c(Nc4ccc(S(=O)(=O)N=C(N)N)cc4)c4ccccc4nc23)CC1`, for which the TGI with M19-MEL melanoma, with XF 498 CNS and in the assay with RXF-631 renal was above 100 µM each time.
With `Cc1nc2ccncc2[nH]1`, the TGI in the assay on M19-MEL melanoma, in the assay on XF 498 CNS and in the assay on RXF-631 renal was above 100 µM in each case.
For the compound `COc1ccc(/C=C/C(=O)c2c(-c3ccccc3)nn(C)c(=O)c2N2CCCCC2)cc1`, the values for the TGI in the assay with M19-MEL melanoma and in the assay with RXF-631 renal were 79.3 µM and above 100 µM, respectively.
The like results for `OC1=CN=C(c2ccccc2)Oc2ccccc21` were, in that order, above 100 µM and above 100 µM.
As for `O=C1C2C(C(=O)N1Cc1ccccc1)N(Cc1ccccc1)C(=O)N2Cc1ccccc1` (stereo not drawn), the TGI in the assay on M19-MEL melanoma, with XF 498 CNS and in the assay on RXF-631 renal was above 100 µM in each case.
For `CCCCCCCCCCCCCC(=O)O[C@H]1CC[C@H](NC(=O)[C@H](OC)[C@H](O)[C@@H](O)[C@H](O)/C=C/C(C)C)C(=O)N(C)C1`, the GI50 is 2.38 nM in the assay on M19-MEL melanoma, 4.3 nM in the assay on XF 498 CNS and 2.38 nM in the assay on RXF-631 renal. Further, the TGI in the assay on M19-MEL melanoma is 15 µM and 3.89 µM; in the assay with RXF-631 renal it was 15 µM and 4.07 µM.
Turning to `N=C(N)n1cc(/C=N/N=C(N)N)cn1`, the TGI is above 100 µM in the assay on HS 578T breast; above 100 µM in the assay with NCI/ADR-RES ovarian; above 100 µM in the assay on MDA-N; above 100000 nM in the assay on MDA-MB-435; above 100 µM in the assay on DU-145 prostate.
On to `O=C1OC(=O)c2c1nc1ccccc1c2-c1ccccc1`, for which the TGI in the assay on M19-MEL melanoma and in the assay with RXF-631 renal was above 100 µM throughout.
For the compound `CN1CCCc2nc3ccccc3n2C1`, the TGI in the assay on M19-MEL melanoma and with XF 498 CNS was above 100 µM throughout.
`CC(C)(C)C1=NO[C@H]2[C@@H](NC(=O)c3ccccc3)CC[C@@H]12`: the TGI in the assay with M19-MEL melanoma and with XF 498 CNS was above 100 µM each time.
Regarding `O=[N+]([O-])c1cccnc1S(=O)(=O)c1ccccc1`, the TGI in the assay on M19-MEL melanoma was determined as 27.3 µM; in the assay on XF 498 CNS, 25.8 µM; in the assay on RXF-631 renal it was 8.01 µM.
On to `COc1cccc(-c2cc(=O)c3cc(N4CCN(C)CC4)ccc3[nH]2)c1`, for which the TGI was 4.88 µM in the assay on HS 578T breast; 0.923 µM and 4.25 µM with MDA-N; 554 nM and 364 nM in the assay on MDA-MB-435. Also, the GI50 in the assay with NCI/ADR-RES ovarian is 3.68 µM; in the assay with MDA-N, 349 nM; in the assay with MDA-MB-435, 160 nM.
Consider `CC(=O)C1(C(=O)C(=[N+]=[N-])S(=O)(=O)c2ccccc2)CC1`, for which the TGI in the assay with HS 578T breast is above 100 µM; in the assay on NCI/ADR-RES ovarian it was above 100 µM; in the assay with MDA-N it was above 100 µM; in the assay with MDA-MB-435 it was above 100000 nM; in the assay on DU-145 prostate, above 100 µM.
Regarding `C/C(=N\NC(=S)N1CCC1)c1ccccn1`, the TGI is above 100 µM with HS 578T breast; above 100 µM in the assay with M19-MEL melanoma; above 100 µM in the assay on XF 498 CNS; above 100 µM in the assay with MDA-N; above 64.6 µM in the assay with RXF-631 renal; 73700 nM in the assay with MDA-MB-435. The compound also came in with a TGI in the assay on DU-145 prostate above 100 µM. For the same compound, the GI50 in the assay with MDA-N is 476 nM; in the assay with MDA-MB-435, 357 nM.
Consider `N#Cc1ccccc1Sc1ccccc1N`, for which the TGI in the assay on M19-MEL melanoma and in the assay with XF 498 CNS was above 100 µM in each case.
On to `Cc1ccc(S(=O)(=O)Nc2ccccc2C(C)(C)C)cc1`, for which the TGI in the assay on M19-MEL melanoma is 82.3 µM; in the assay on XF 498 CNS it was 44.8 µM.
As to `Cc1ccc(-n2c3nc(=O)n(C)c(=O)c-3nc3ccccc32)c(C)c1`, the results for the TGI with M19-MEL melanoma, in the assay on XF 498 CNS and in the assay with RXF-631 renal were 3.33 µM, 26 µM and 23.9 µM, respectively.
Consider `C=C1C(=O)O[C@@H]2C[C@@]3(C)[C@H](O)CCC(=C)[C@@H]3C[C@H]12`, for which the TGI turned out to be 32.9 µM in the assay on M19-MEL melanoma, 9.74 µM with XF 498 CNS and 28.1 µM with RXF-631 renal.
On to `O=C1C=CC2(O)OCC3C=C4O[C@@H]5OC6(CCCCC6)O[C@@H]5C4[C@@H]2[C@@H]13` (stereo partly drawn), for which the TGI with M19-MEL melanoma was found to be 54.9 µM; in the assay with XF 498 CNS, 72.6 µM.
Take `O=C(Nc1nc(=S)[nH][nH]1)C(=O)C(c1cnc2ccc([N+](=O)[O-])cc2n1)[N+](=O)[O-]` (stereo not drawn): the TGI in the assay with M19-MEL melanoma, with XF 498 CNS and in the assay on RXF-631 renal was above 100 µM each time.
Turning to `CC(C)(C)OC(=O)N[C@H]1CC(=O)c2ccccc2N(CC(=O)O)C1=O`, the TGI in the assay with M19-MEL melanoma and in the assay with RXF-631 renal was above 100 µM throughout.
In the assay on XF 498 CNS, `O=C(Nc1ccccc1C(=O)NC(=O)c1ccccc1NC(=O)c1ccccc1)c1ccccc1` showed a TGI of 4.38 µM.
Turning to `Nc1nc(-c2ccccc2)c(CC(=O)O)s1`, the TGI in the assay on HS 578T breast was above 100 µM; in the assay with NCI/ADR-RES ovarian it was above 100 µM; in the assay with MDA-N, above 100 µM; with MDA-MB-435 it was above 100000 nM; in the assay with DU-145 prostate it was above 100 µM.
On to `CCOC(=O)C1=C(C)N(NC(N)=O)C2(N)N(NC(N)=O)C(C)=C(C(=O)OCC)C12C#N` (stereo not drawn), for which the TGI with M19-MEL melanoma, with XF 498 CNS and in the assay with RXF-631 renal was above 100 µM throughout.
As for `CCCC(O)[C@@]1(CC)CC(C)C(O)(C2(C)C[C@H](C)[C@@H](C(CC)C(=O)C(C)[C@@H](O)[C@H](C)C3OC(O)(C(CC)C(=O)O)[C@@H](C)C(O)C3CC)O2)O1` (stereo partly drawn), the TGI with HS 578T breast is 2.99 µM; with M19-MEL melanoma it was 2.17 µM; in the assay on XF 498 CNS, 2.43 µM; in the assay with NCI/ADR-RES ovarian, 1.82 µM; with MDA-N, 1.86 µM; with RXF-631 renal it was 1.93 µM. The TGI in the assay with MDA-MB-435 was found to be 1200 nM; in the assay with DU-145 prostate, 1.31 µM.
For the compound `O=C([O-])c1ccc([I+]c2ccccc2)cc1`, the TGI in the assay with M19-MEL melanoma, in the assay with XF 498 CNS and in the assay on RXF-631 renal was above 100 µM in each case.
For the compound `O=C1C=CC2(CCC23C=CC(=O)O3)O1` (stereo not drawn), the TGI in the assay on M19-MEL melanoma, in the assay on XF 498 CNS and in the assay with RXF-631 renal was above 100 µM each time.
In the case of `CCOC(=O)C[C@@]12CCCN[C@]1(C)CCc1ccccc12`, the TGI with M19-MEL melanoma and in the assay with XF 498 CNS was above 100 µM in each case.
For the compound `COc1ccc(N(CC(=O)O)N=O)cc1`, the TGI was above 100 µM in the assay on HS 578T breast; above 100 µM with NCI/ADR-RES ovarian; above 100 µM in the assay with MDA-N; above 100000 nM in the assay on MDA-MB-435; above 100 µM in the assay on DU-145 prostate.
On to `[O-][n+]1c2cccc(O)c2[n+]([O-])c2cccc(O)c21`, for which the TGI is above 100 µM in the assay on HS 578T breast; above 100 µM in the assay on NCI/ADR-RES ovarian; above 100 µM in the assay with MDA-N; above 100000 nM in the assay on MDA-MB-435; above 100 µM in the assay on DU-145 prostate.
For the compound `O=c1c2ccccc2nc(-c2cccc(Cl)c2)n1NC1OC(CO)C(O)C(O)C1O` (stereo not drawn), the TGI in the assay on M19-MEL melanoma, in the assay on XF 498 CNS and in the assay with RXF-631 renal was above 100 µM each time.
With `CCOC(=O)C1C(c2ccc(Br)cc2)N(Cc2ccccc2)C(c2ccc(Br)cc2)C(C(=O)OC)S1(=O)=O` (stereo not drawn), the TGI in the assay with M19-MEL melanoma and in the assay with XF 498 CNS was above 100 µM each time.
Turning to `Cc1cc(OC2OC(CO)C(O)C(O)C2O)ccc1O` (stereo not drawn), the TGI is above 100 µM in the assay with HS 578T breast, above 100 µM with NCI/ADR-RES ovarian, above 100 µM with MDA-N and above 100000 nM in the assay with MDA-MB-435.
For `CCc1c(OC(C)=O)c2c(NC3OC(COC(C)=O)C(OC(C)=O)C(OC(C)=O)C3OC(C)=O)nc(SC)nc2oc1=O` (stereo not drawn), the TGI in the assay with M19-MEL melanoma, with XF 498 CNS and in the assay with RXF-631 renal was above 100 µM throughout.
